Test results taken from patent US9266815B2, “Anti-metastatic agents predicated upon polyamine macrocyclic conjugates” (University of Central Florida Research Foundation, Inc., priority 2012, dated 2016).
pIC50: −log10 of the molar value. Entries after “also recorded” stand apart in the source; their conditions may differ.

Tests used:
[1] = test system: human pancreatic cancer L3.6p1 cells; test: Orthotopic mouse model, liver micrometastases; type: in vivo
Description: In one embodiment, the cancer is breast cancer. In another embodiment, the cancer is pancreatic cancer. […] The control was saline solution. The respective drugs (44a and 45) were dosed at their respective maximum tolerated dose (MTD).

CHO-MG* cells = test: Cytotoxicity (MTS cell growth) in CHO-MG* cells; type: cell-based, Chinese hamster; conditions: for pIC50: 48 h at 37° C., 1 mM AG 24 h prior to drug addition, triplicate
Text: (§1) CHO cells were chosen along with a mutant cell line (CHO-MG*) to comment on how the synthetic conjugates gain access to the cells.^2c-e, 6 As discussed earlier, the CHO-MG* cell line is polyamine-transport deficient and represents a model for alternative modes of entry (other than PTS) including passive diffusion or use of another transporter. The CHO cell line on the other hand, represents cells with high polyamine transport activity.^7b, 10c A comparison of toxicity in these two CHO cell lines allowed for a screen that would detect selective use of the polyamine transporter. High utilization of the PTS would be very toxic to CHO cells. However, the CHO-MG* cells should be less sensitive to drugs which target the PTS.^2c-e, 6 Ultimately, a CHO-MG*/CHO IC50 ratio was determined to assess PTS selectivity. A high IC50 ratio (>>2) would be observed for PTS selective compounds.
(§2) CHO and CHO-MG* cells were grown in RPMI 1640 medium supplemented with 10% fetal calf serum and 1% penicillin/streptomycin. Note: the media must contain L-proline (2 μg/mL) for proper growth of the CHO-MG* cells. L3.6p1 cells were grown in RPMI 1640 medium supplemented with 10% FBS and 1% penicillin/streptomycin. All cells were grown at 37° C. under a humidified 5% CO2 atmosphere Aminoguanidine (1 mM for CHO and CHO-MG*, and 250 μM for L3.6p1) was added to the growth medium to prevent oxidation of the drugs by the enzyme (bovine serum amine oxidase) present in calf serum. Cells in early to mid-log phase growth were used.
(§3) Cell growth was assayed in sterile 96-well microtiter plates (Costar 3599, Corning, N.Y., USA). CHO and CHO-MG* cells were plated at 10,000 cells/mL. L3.6p1 cells were plated at 5,000 cells/mL. Drug solutions (10 μL per well) of appropriate concentration were added after an overnight incubation for each CHO cell line (90 μL of cell suspension). After exposure to the drug for 48 h, cell growth was determined by measuring formazan formation from 3-(4,5-dimethylthiazol-2-yl)-5-(3-carboxymethoxyphenyl)-2-(4-sulphenyl)-2H-tetrazolium, inner salt (MTS) using a SynergyMx BioTek microplate reader for absorbance ([…]) measurements.^23 A 4 h incubation period was used for the MTS assay in accordance with the manufacturer's protocol.^23

CHO cells = test: Cytotoxicity (MTS cell growth) in CHO cells; type: cell-based, Chinese hamster; conditions: 48 h at 37° C., 1 mM AG 24 h prior to drug addition, triplicate
Text: as §1, §2, §3

L3.6pl cells [2] = test: Cytotoxicity IC50 and MTD determination in L3.6pl cells; type: cell-based; conditions: for pIC50 / L3.6pl MTD: 48 h at 37° C.; for pIC50: 250 μM AG 24 h prior to drug addition; for MTD higher than 0.6 μM (MTD of 44a): relative to parent 44a; for L3.6pl MTD: maximum tolerated dose, 250 μM AG
Description: The MTD (Maximum tolerated dose) was determined for each of these compounds (Table III-2).
Note: the media must contain L-proline (2 μg/mL) for proper growth of the CHO-MG* cells. […] Cells in early to mid-log phase growth were used.
CHO and CHO-MG* cells were plated at 10,000 cells/mL. L3.6p1 cells were plated at 5,000 cells/mL. Drug solutions (10 μL per well) of appropriate concentration were added after an overnight incubation for each CHO cell line (90 μL of cell suspension).

L3.6pl cells [3] = test: Wound healing assay (cell migration); type: cell-based, human; conditions: for anti-migration ability relative to parent 44a (in words): dosed at 0.6 μM
Description: A wound healing assay was employed to evaluate the anti-migration properties of compounds 44a-b, 46a-b, and 47a-b in L3.6p1 cells. This involved growing a monolayer of L3.6p1 cells and then scraping the monolayer with a sterile pipet tip to create a cell free zone in the middle of the well. The experiment was run in 96-well plate format. Wound healing was measured by time-course imaging of each well using a computer-controlled microscope with an x,y,z stage which allowed for reproducible imaging over time. Each drug was evaluated for its dose-dependent inhibition of cell migration. Each compound was evaluated at its own MTD in order to avoid cytotoxic effects which are well known to bias migration studies.^37a In addition, each compound was also tested at the MTD of 44a (Motu33) in order to directly compare the potency of these compounds at the same concentration.
Taking pictures of each wound needed to be done under a 2.5× objective in order to view ˜95% of each well. […] This problem was alleviated through the use of the ImageJ software.^47 This software allowed for enhancing the contrast between areas which were occupied by cells versus areas devoid of cells. In this regard, the software was able to accurately define the edges of each boundary. These capabilities then allowed for accurate area calculations which are seen in Table 3.
Anti-migratory properties were assayed in 96-well microtiter plates (Costar 3599, Corning, N.Y., USA). A stock suspension of L3.6p1 cells (5.5×10^5 cells/mL) was prepared. L3.6p1 cells (90 μL of stock/well) were plated and allowed to grow to a confluent monolayer (48 h). Each well was then scraped with a 1 μL sterile pipet tip, photographed with a Zeiss Stemi Microscope (2.5× objective) (time=0), and then allowed to incubate for an additional 48 h period (time=48 h). Over this 48 h period, the untreated control migrated to fill 50% of the original wound. At time zero, the respective drug solutions (10 μL) were added and cell migration monitored after 48 h incubation at 37° C. with 5% CO2. After drug exposure for 48 h, respective time=48 h photographs were taken by the Zeiss Stemi Microscope. These pictures (time=0 and time=48 h) were then compared and analyzed through the use of ImageJ software^47 by calculating the average area invaded by L3.6p1 cells.

[4] = test system: pancreatic tumor (L3.6p1 cells); test: Mouse pancreatic tumor model, tumor size; type: in vivo; conditions: for tumor volume size: versus untreated control, preliminary data not shown
Text: Further, the present inventors have found a dramatic increase in the therapeutic window available to these new agents relative to the parent compound 44a. These large carbocycles (e.g., the macrocyclic core) and carbocycle-alkyl groups (e.g., cyclopentadecyl-CH2— is preferred) represent a new N-substituent which imparts the unique properties of anti-migration activity and lower toxicity. Advantageously, the compounds described herein may be administered alone or in combination with known and/or new therapies (e.g., other chemotherapeutic agents or radiation) to help treat or prevent the spread of primary tumors and allow time for the intervention (e.g., other chemotherapeutic) to work on the primary tumor.
Thus, this represents an exciting unexpected discovery that not only can compounds of the present invention reduce metastasis, they reduce the tumor itself.

yeast cells = conditions: 60 μM; cited from earlier work
[5] = test system: MDA-231 breast carcinoma cells; conditions: cited from earlier work
MDA-MB-231 cells = conditions: cited from earlier work
[6] = test system: original CHO-MG line and CHO; conditions: reported earlier (ref 2f); cited from earlier work
[7] = Homo sapiens, 0.6 μM, 48 h, 250 μM AG
[8] = 2 μM (MTD of the conjugate), 48 h

Row | SMILES | pIC50 (CHO-MG* cells; Cricetulus griseus, CHO-MG) | pIC50 (CHO cells; Cricetulus griseus, CHO) | pIC50 (L3.6pl cells [2]; Homo sapiens, L3.6pl) | MTD higher than 0.6 μM (MTD of 44a) (L3.6pl cells [2]; L3.6pl) | L3.6pl MTD (L3.6pl cells [2]) | % Cell Migration (L3.6pl cells [3]; 0.6 μM, 48 h, 250 μM AG) | inhibition at 0.6 µM (L3.6pl cells [3]; [7]) | anti-migration ability relative to parent 44a (in words) (L3.6pl cells [3]) | tumor volume size [4] | anti-migration property (in words) (L3.6pl cells [3]) | % Cell Migration (L3.6pl cells [3]; [8]) | further results
1 | CCN(CCCNCCCN)Cc1c2ccccc2cc2ccccc12 [AntNEt33] | – | – | – | – | – | – | – | – | – | – | – | anti-metastatic properties in vivo ([1]; compared with dihydromotuporamine C): failed to mimic the anti-metastatic properties
2 | NCCCCNCCCCNCC1CCCCCCCCCCCCCC1 [Compound 47b, N^1-(4-aminobutyl)-N^4-(cyclopentadecylmethyl)butane-1,4-diamine] | 4.34 | 4.32 | 4.31 | > 60 fold | 40 µM | 33.4 (±1.8) % | 29.6% | dramatic increase in anti-migration ability | – | – | – | % Cell Migration (L3.6pl cells [3]; 40 μM (MTD of the conjugate), 48 h): 25.9 (±2.1) %; inhibition at 40 µM (L3.6pl cells [3]; Homo sapiens, L3.6pl, 40 μM (MTD of the conjugate), 48 h): 45.3%
3 | NCCCNCCCN1CCCCCCCCCCCCCC1 [Compound 44a, dihydromotuporamine C, reference compound] | 5.53 | 5.54 | 6.00 | – | 0.6 µM | 37.8 (±3.3) % | 20.3% | – | dramatic decreases in tumor volume size | – | – | CHO-MG*/CHO IC50 ratio (CHO-MG* cells; measure of PTS selectivity): 1; degree of metastasis (liver micrometastases per slide) ([1]; dosed at MTD, control saline, FIG. 7): effective in reducing the degree of metastasis; growth of yeast cells (yeast cells): fully inhibit the growth; cytotoxicity (in words) [5]: highly cytotoxic; anti-invasive properties (in words) (MDA-MB-231 cells): good anti-invasive properties; IC50 ratio in the original CHO-MG line and CHO [6]: 1
4 | NCCCCNCCCCNC1CCCCCCCCCCCCCC1 [Compound 46b, N^1-(4-Aminobutyl)-N^4-cyclopentadecylbutane-1,4-diamine] | 5.29 | 5.34 | 5.55 | – | 2.0 µM | 32.5 (±4.3) % | 31.4% | – | – | have this anti-migration property | 31.6 (±0.5) % | inhibition at 2 µM (L3.6pl cells [3]; Homo sapiens, L3.6pl, 2 μM (MTD of the conjugate), 48 h): 33.4%
5 | NCCCNCCCNC1CCCCCCCCCCCCCC1 [Compound 46a, N(3-Aminopropyl)-N3-cyclopentadecylpropane-1,3-diamine] | – | – | – | – | 2.0 µM | 38.2 (±2.5) % | – | – | – | have this anti-migration property | 31.8 (±0.1) % | pIC50 (CHO-MG* cells): 5.23; pIC50 (CHO cells): 5.55; pIC50 (L3.6pl cells [2]): 5.55; % Cell Migration Inhibition (L3.6pl cells [3]; 0.6 μM, 48 h, 250 μM AG): 19.3 (±1.3) %; % Cell Migration Inhibition (L3.6pl cells [3]; [8]): 32.9 (±0.1) %
6 | NCCCNCCCNCC1CCCCCCCCCCCCCC1 [Compound 47a, N^1-(3-aminopropyl)-N^3-(cyclopentadecylmethyl)propane-1,3-diamine] | 4.06 | 4.08 | 4.05 | > 130 fold | 80 µM | 29.2 (±3.2) % | 38.4% | highest inhibition; also recorded: dramatic increase in anti-migration ability; also recorded: significant improvement in anti-migration ability | dramatic decreases in tumor volume size | have this anti-migration property | – | less toxic than the parent (44a) (L3.6pl cells [2]; relative to 44a): about 130 times; % Cell Migration (L3.6pl cells [3]; 80 μM (MTD of the conjugate), 48 h): 26.2 (±1.3) %; inhibition at 80 µM (L3.6pl cells [3]; Homo sapiens, L3.6pl, 80 μM (MTD of the conjugate), 48 h): 44.8%; tumor growth in vivo ([4]; mouse studies, preliminary): inhibit tumor growth in vivo
